Measured values taken from patent publication US4786639A, “Method for the treatment of reversible airways obstruction and asthma” (Beecham Group p.l.c., priority 1984, dated 1988).
In brackets after ≈: the same amount, converted by molar mass. Read-outs that look alike come from different tables or passages of the source.

How the values were obtained:
[1] = test system: Rat isolated portal vein; assay: Rat isolated portal vein: inhibition of spontaneous contractions and of contractions due to added calcium; set-up: species or system rat (male Sprague Dawley); details: for IC50: Rattus norvegicus, 0.25 h, 15 min contact time, 6-9 tissues, 95% fiducial limits in next line
Procedure: (1) Rat isolated portal vein. Male Sprague Dawley rats (250-350 g) were killed by cervical dislocation. Portal veins (2-3cm in length) were set up under 0.8-1 g tension in a 10 ml organ bath containing Krebs-Henseleit solution, at 37° C., of the following composition (mM): NaCl 118, NaHCO3 25, glucose 5, KH2 PO4 1.18, KCl 4.69, MgSO4 0.59, CaCl2.H2 O 1.87. The tissue was aerated with a 95% oxygen and 5% carbon dioxide mixture. Isometric tension was recorded using a Devices strain gauge and recorder. Each preparation was allowed 1h to equilibrate before the addition of test compound. The ability of a compound to inhibit the contractions due to added calcium (3 mM CaCl2) was determined in tissues bathed in Krebs-Henseleit solution containing 0.05 mM CaCl2 (in order to reduce spontaneous contractions). Then percentage inhibition (mean ±s.e.m.; 6-9 tissues) of the amplitude of the spontaneous contractions, and contractions due to added calcium, was determined after 15 min contact time with test compound.
(1) Rat Isolated Portal Vein: effect of compound 1 on spontaneous contractions and those due to added calcium.
IC50 is concentration of compound reducing contractions by 50%; parenthesis indicate 95% fiducial limits.

[2] = test system: Rabbit isolated mesenteric artery; assay: Rabbit isolated mesenteric artery: relaxation of contractions due to KCl; set-up: species or system rabbit (male New Zealand White); details: for IC50: Oryctolagus cuniculus, 4-9 tissues
Procedure: (2) Rabbit isolated mesenteric artery. Mesenteric arteries (3 mm rings) were removed from male New Zealand White rabbits and mounted, at a resting tension of 1.5-2.0 g, in a 10 ml organ bath containing a Ringer solution, at 37° C., of the following composition (mM): NaCl 120.8; KCl 5.9; CaCl2 2.5; MgCl2 1.2; HEPES 5.8; glucose 11.5. The bathing solution was bubbled with a 95% oxygen and 5% carbon dioxide mixture. Each preparation was allowed 1-11/2 h to equilibrate before the addition of either 30 or 90 mM KCl to contract the tissue. The ability of test compound to relax the sustained contraction due to KCl was determined by assessing the % reduction (mean ±s.e.m.; 4-9 tissues) produced by varying concentrations of test compound.
(2) Rabbit Isolated Mesenteric Artery: effect of compound 1 on contractions due to 30 and 90 mM KCl.
IC50 is the concentration of compound 1 halving the contraction due to KCl; parenthesis indicate 95% fiducial limits.

[3] = test system: Rat isolated colon; assay: Rat isolated colon: inhibition of spontaneous contractions; set-up: species or system rat (male Wister); details: 10 min, cumulative dosing at 10 min intervals, graphically determined, read-out: ID50 (concentration reducing amplitude of spontaneous contractions by 50%)
Procedure: Rat isolated colon. Male Wister rats (Charles River U.K.) were killed by a blow on the head and a 2 cm segment of proximal colon excised. After gently washing free any luminal contents the tissue was suspended longitudinally in a 10 ml organ bath containing Krebs solution of the following composition: NaCl 118.1 mM, KH2 PO4 1.18 mM, NaHCO3 25 mM, KCl 4.69 mM, MgSO4 1.64 mM, CaCl2 2.52 mM, Glucose 11.1 mM. This solution was maintained at 37° C. and constantly bubbled with 95% O2 : 5% CO2. Isometric contractions were recorded from the tissue with an initial tension of 1 g being applied.
The inhibitory effects of compounds 1+2 were assessed from the reduction in amplitude of the spontaneous contractions of the colon. Cumulative dose-response curves were constructed with the compounds being applied to the bath at intervals of 10 mins. ID50 (concentration of drug reducing amplitude of contractions by 50%) was graphically determined from the dose-response curve.
Rat isolated colon : effect of compounds 1 and 2 on spontaneous contractions

[4] = test system: conscious guinea-pig; assay: Guinea pig asphyxic collapse model in vivo (histamine aerosol); set-up: species or system guinea pig (female Dunkin-Hartley); details: 5 mg/kg p.o., 30 min pretreatment, control 90 ± 10
Description: This model is based on the method described by Herxheimer (Br.J.Pharm.50, 314 (1974)]. Conscious female guinea pigs (Dunkin-Hartley strain, 500-700 g body weight) were placed individually into a Perspex chamber of approximately 8 litres capacity, and the animals were challenged with an histamine aerosol. The standard histamine aerosol was generated using a Monaghan 675 ultrasonic nebulizer (power setting 7) from a 5×10^-5 m solution of histamine acid phosphate in distilled water. After obtaining satisfactory aerosol generation, the aerosol was passed into the chamber for 10 seconds and the time was recorded from introduction of the aerosol until the guinea pig collapsed (termed asphyxic collapse). The animal was rapidly removed and allowed to recover. In this way, the mean time to asphyxic collapse for a group of guinea pigs was determined.
Compounds were administered orally to groups of animals and the degree of protection against histamine-induced asphyxic collapse was determined by the percentage increase in mean time to asphyxic collapse of a compound-treated group to asphyxic collapse for control groups was around 80-100 seconds. […]
The significance of any increase in the mean asphyxic collapse time of a compound-treated group of animals over that of a vehicle-treated control group was determined using students "t" test. […]

[5] = test system: potassium depolarised rat uterus; assay: Relaxation of potassium depolarised rat uterus; set-up: species or system rat (female Sprague Dawley); details: 7 preparations, relative to full relaxation with isoprenaline, read-out: % maximum relaxation
Procedure: Relaxation of Potassium Depolarised Rat Uterus
Female Sprague Dawley rats (120-160 g) were sacrificed and the uterine horns removed. Each horn was cut longitudinally to give a sheet of muscle which was further subdivided to give two preparations (i.e. 4 from each animal). Each tissue was mounted in a 10 ml organ bath containing normal Krebs buffer at 32° C. and gassed with 95% O2 -5% CO2. During an equilibration period of approximately 45 min the tissues were repeatedly stretched and washed to maintain a resting tension of 0.2 g. An increase in tension was induced by exchanging the Krebs buffer for one in which the sodium ions were replaced by the equivalent amount of potassium ions.
This caused the tissues to contract followed by a slow relaxation which equilibrated at a level above the initial resting level. A cumulative concentration effect curve to compound 1 was then carried out until the response to the final bath concentration (10^-4 M) had stabilised. Incremental concentrations of isoprenaline were then added until the tissues had fully relaxed. Results are expressed as a percentage of this maximum relaxation.
7 preparations were used.

Row | IC50 ([1]; contractions due to added calcium (3 mM CaCl2), read-out: IC50 Ca^2+ (3 mM) contractions) [nM] | IC50 ([1]; spontaneous contractions, read-out: IC50 Spontaneous contractions) [nM] | IC50 ([2]; 30 mM KCl, 95% fiducial limits in next line, read-out: IC50 30 mM KCl contraction) [nM] | IC50 ([2]; 90 mM KCl, read-out: IC50 90 mM KCl contraction) [nM] | IC50 [3] [µg/mL] | SMILES | relative potency, spontaneous contractions vs those due to added calcium ([1]; spontaneous contractions and those due to added calcium) | effect against a high concentration of KCl ([2]; high concentration of KCl) | antagonism of contractions due to potassium ([2]; partially (low KCl) vs fully (high KCl) depolarising concentration) | Mean collapse time ([4]; N=5, *p < 0.05) [s] | activation at 100 µM ([5]; 1 × 10^-4 M) [%] | activation at 10 µM ([5]; 1 × 10^-5 M) [%] | activation at 30 µM ([5]; 3 × 10^-5 M) [%] | activation at 3 µM ([5]; 3 × 10^-6 M) [%] | Mean collapse time ([4]; N=4, **p < 0.01) [s]
1 | 150 | 120 | 510 | > 10000 | 0.12 (≈ 0.419 µM) | CC1(C)Oc2ccc(C#N)cc2[C@@H](N2CCCC2=O)[C@@H]1O (relative stereo) [Compound 1, 6-cyano-3,4-dihydro-2,2-dimethyl-trans-4-(2-oxo-1-pyrrolidinyl)-2H-benzo[b]pyran-3-ol] | equipotent | effectiveness of compound 1 against a high concentration of KCl | antagonises the contractions due to a partially, but not a fully, depolarising concentration of potassium | 154 ± 26 | 61 ± 6 | 18 ± 3 | 31 ± 3 | 6 ± 2 | –
2 | – | – | – | – | 1.7 (≈ 5.75 µM) | CC1(C)Oc2ccc(Cl)cc2[C@@H](N2CCCC2=O)[C@@H]1O (relative stereo) [Compound 2, 6-chloro-3,4-dihydro-2,2-dimethyl-trans-4-(2-oxo-1-pyrrolidinyl)-2H-benzo[b]pyran-3-ol] | – | – | – | – | – | – | – | – | –
3 | – | – | – | – | – | CCN(C(C)=O)[C@@H]1c2cc(C#N)ccc2OC(C)(C)[C@H]1O (relative stereo) [Compound 4, trans-4-(N-acetyl)-ethylamino-6-cyano-3,4-dihydro-2,2-dimethyl-2H-benzo[b]pyran-3-ol] | – | – | – | – | – | – | – | – | 176 ± 25
